How the values were obtained:
[1] = target: T1, human recombinant C-terminal His-tagged LDHA (Homo sapiens, UniProt P00338); assay: Human LDHA enzyme assay, human serum albumin (HSA) shift; assay type: biochemical; conditions: final concentration 10% HSA
T1 construct: His (C)
Procedure: (§1) Compounds were dissolved in DMSO and preincubated with human recombinant C-terminal His-tagged LDHA (0.070 μg/mL) for 10 min at room temperature in assay buffer consisting 50 mM Tris, pH 7.5 and 100 mM NaCl in black walled, clear bottom, non-binding 96-well plates. Equal volumes of substrate solution containing 100 μM of pyruvate and 100 μM of NADH in assay buffer was added to each well (final concentration 0.035 μg/mL enzyme, 50 μM pyruvate, 50 μM NADH, and 1% DMSO). For human serum albumin (HSA) shift assay, the compounds were preincubated with the enzyme in assay buffer containing 20% HSA before substrate addition (final concentration 10% HSA). The reaction was monitored at 340 nm on a plate reader (Molecular Devices) in kinetic mode for 15 min. The rate of the reaction was determined by plotting absorbance vs time.

[2] = Liver-targeted tissue distribution profile study in rats; assay type: in vivo, Sprague Dawley rats; conditions: rat, single 10 mg/kg PO
Procedure: Plasma and liver (target organ) concentrations of test compounds were determined in rats following a single per os (PO) administration of the test compounds. Male Sprague Dawley rats (6-8 weeks of age, Charles River Labs) were fasted overnight and a single dose of test compounds (10 mg/kg; as a suspension in 0.5% methyl cellulose) was administered by PO gavage. Rats were then sacrificed at 4 and 24 h after administration of the test compounds, and plasma and liver tissue samples were collected. Liver tissue samples were homogenized in 5 volumes of water:acetonitrile (50/50; v/v) mixture using a bead mill homogenizer. Plasma and liver homogenate samples were processed by protein precipitation using acetonitrile and the concentrations of the test compounds were determined by liquid chromatography-tandem mass spectrometry (SciEx triple quad 5500+ with Exion UPLC).
Liver and plasma exposures at the 4 h and 24 h timepoints for the various compounds are described in Table 5 below. Measured compound concentrations are as follows: ++++>10 μM; 10 μM≥+++>5 μM; 5 μM≥++>1 μM; 1 μM≥+>0.25 μM; and 0.25 μM≥−.

[3] = target: T1, human recombinant C-terminal His-tagged LDHA; assay: Human LDHA enzyme assay; assay type: biochemical; conditions: 50 μM pyruvate, 50 μM NADH, no HSA
Procedure: as §1

[4] = test system: fresh primary mouse hepatocytes; assay: Primary mouse hepatocyte assay (lactate production); assay type: cell-based
Procedure: Compounds were evaluated in an ex vivo assay consisting of fresh primary mouse hepatocytes. Hepatocytes were isolated from wild type mice (C57BL/6NCrl from Charles River Labs) using a two-step collagenase perfusion technique which involves a sequential perfusion of anesthetized mice with Hanks' balanced salt solution and collagenase. Following isolation, viable wild type hepatocytes (0.1 M cells/well) were incubated with test compound in presence of pyruvate and compound potency was evaluated by measuring the lactate produced by the cells using liquid chromatography coupled to mass spectrometry. Chromatographic separation was achieved on an XDB-C18 4.6×50 mm column (Agilent, Cat #927975-902) at a flow rate of 1 mL/min Mobile phase A consisted of 0.1% formic acid in water and mobile phase B consisted of acetonitrile. A gradient program was initiated starting at 5% B which was held for 1 minutes, then ramped from 5% to 95% B over 1 minute. After holding at 95% B for 1 minute, the program changed back to 5% B. The column was equilibrated with 5% B for […] before the next injection. The mass spectrometer was operated in negative mode with electrospray ionization. The following transition along with their collision energy (CE) were used: 89→43 (CE: −16 V) for lactate and 92→45 (CE: −16 V) for ^13C3-Lactate (internal standard).

[5] = Run at 0.4M cells/well concentration of hepatocytes

Compound | IC50 [1] [nM] | Measured Compound Concentrations Liver - 4 h [2] | Measured Compound Concentrations Liver - 24 h [2] | Measured Compound Concentrations Plasma - 4 h [2] | Measured Compound Concentrations Plasma - 24 h [2] | IC50 [3] [nM] | IC50 ([4]; 0.1 M cells/well) [nM] | IC50 [4, 5] [nM]
NS(=O)(=O)c1ccc(Cc2c(-c3ccc(F)cc3)nn(-c3nc(C(=O)O)cs3)c2CC2CC2)cc1F [Example 1, 2-(5-(cyclopropylmethyl)-4-(3-fluoro-4-sulfamoylbenzyl)-3-(4-fluorophenyl)-1H-pyrazol-1-yl)thiazole-4-carboxylic acid] | 1 to 10 | ++++ (++++>10 μM) | + (1 μM≥+>0.25 μM) | − (0.25 μM≥−) | − (0.25 μM≥−) | < 1 | < 100 | 
N#Cc1cc(-c2nn(-c3nc(C(=O)O)cs3)c(CC3CC3)c2Cc2ccc(S(N)(=O)=O)c(F)c2)ccc1F [Example 2, 2-(3-(3-Cyano-4-fluorophenyl)-5-(cyclopropylmethyl)-4-(3-fluoro-4-sulfamoylbenzyl)-1H-pyrazol-1-yl)thiazole-4-carboxylic acid] | 1 to 10 | +++ (10 μM≥+++>5 μM) | − (0.25 μM≥−) | − (0.25 μM≥−) | − (0.25 μM≥−) | < 1 | < 100 | 
NS(=O)(=O)c1ccc(Cc2c(-c3ccc(F)c(Cl)c3)nn(-c3nc(C(=O)O)cs3)c2CC2CC2)cc1F [Example 8, 2-(3-(3-Chloro-4-fluorophenyl)-5-(cyclopropylmethyl)-4-(3-fluoro-4-sulfamoylbenzyl)-1H-pyrazol-1-yl)thiazole-4-carboxylic acid] | 1 to 10 | +++ (10 μM≥+++>5 μM) | − (0.25 μM≥−) | − (0.25 μM≥−) | − (0.25 μM≥−) | < 1 |  | 100 to 250
NS(=O)(=O)c1ccc(Cc2c(-c3ccc(F)cc3)nn(-c3nc(C(=O)O)co3)c2CC2CC2)cc1F [Example 9, 2-(5-(Cyclopropylmethyl)-4-(3-fluoro-4-sulfamoylbenzyl)-3-(4-fluorophenyl)-1H-pyrazol-1-yl)oxazole-4-carboxylic acid] | 1 to 10 | ++ (5 μM≥++>1 μM) | − (0.25 μM≥−) | − (0.25 μM≥−) | − (0.25 μM≥−) | < 1 |  | 100 to 250
N#Cc1cccc(-c2nn(-c3nc(C(=O)O)cs3)c(CC3CC3)c2Cc2ccc(S(N)(=O)=O)c(F)c2)c1 [Example 11, 2-(3-(3-cyanophenyl)-5-(cyclopropylmethyl)-4-(3-fluoro-4-sulfamoylbenzyl)-1H-pyrazol-1-yl)thiazole-4-carboxylic acid] | 1 to 10 | +++ (10 μM≥+++>5 μM) | − (0.25 μM≥−) | − (0.25 μM≥−) | − (0.25 μM≥−) | < 1 | < 100 | 
NS(=O)(=O)c1ccc(Cc2c(-c3ccc(F)c(F)c3)nn(-c3nc(C(=O)O)cs3)c2CC2CC2)cc1F [Example 12, 2-(5-(Cyclopropylmethyl)-3-(3,4-difluorophenyl)-4-(3-fluoro-4-sulfamoylbenzyl)-1H-pyrazol-1-yl)thiazole-4-carboxylic acid] | 1 to 10 | +++ (10 μM≥+++>5 μM) | − (0.25 μM≥−) | − (0.25 μM≥−) | − (0.25 μM≥−) | < 1 | < 100 | 
NS(=O)(=O)c1ccc(Cc2c(-c3cccc(F)c3)nn(-c3nc(C(=O)O)cs3)c2CC2CC2)cc1F [Example 14, 2-(5-(cyclopropylmethyl)-4-(3-fluoro-4-sulfamoylbenzyl)-3-(3-fluorophenyl)-1H-pyrazol-1-yl)thiazole-4-carboxylic acid] | 1 to 10 | ++++ (++++>10 μM) | + (1 μM≥+>0.25 μM) | − (0.25 μM≥−) | − (0.25 μM≥−) | < 1 |  | < 100
NS(=O)(=O)c1ccc(Cc2c(-c3cc(F)cc(F)c3)nn(-c3nc(C(=O)O)cs3)c2CC2CC2)cc1F [Example 15, 2-(5-(cyclopropylmethyl)-3-(3,5-difluorophenyl)-4-(3-fluoro-4-sulfamoylbenzyl)-1H-pyrazol-1-yl)thiazole-4-carboxylic acid] | 1 to 10 | ++++ (++++>10 μM) | + (1 μM≥+>0.25 μM) | − (0.25 μM≥−) | − (0.25 μM≥−) | < 1 |  | < 100
NS(=O)(=O)c1ccc(Cc2c(-c3ccc(Cl)cc3)nn(-c3nc(C(=O)O)cs3)c2CC2CC2)cc1F [Example 16, 2-(3-(4-chlorophenyl)-5-(cyclopropylmethyl)-4-(3-fluoro-4-sulfamoylbenzyl)-1H-pyrazol-1-yl)thiazole-4-carboxylic acid] | 10 to 100 | ++ (5 μM≥++>1 μM) | − (0.25 μM≥−) | − (0.25 μM≥−) | − (0.25 μM≥−) | < 1 |  | < 100
NS(=O)(=O)c1ccc(Cc2c(-c3cccc(Cl)c3)nn(-c3nc(C(=O)O)cs3)c2CC2CC2)cc1F [Example 17, 2-(3-(3-chlorophenyl)-5-(cyclopropylmethyl)-4-(3-fluoro-4-sulfamoylbenzyl)-1H-pyrazol-1-yl)thiazole-4-carboxylic acid] | 1 to 10 | +++ (10 μM≥+++>5 μM) | − (0.25 μM≥−) | − (0.25 μM≥−) | − (0.25 μM≥−) | < 1 | < 100 | 
COc1cc(-c2nn(-c3nc(C(=O)O)cs3)c(CC3CC3)c2Cc2ccc(S(N)(=O)=O)c(F)c2)ccc1C#N [Example 23, 2-(3-(4-cyano-3-methoxyphenyl)-5-(cyclopropylmethyl)-4-(3-fluoro-4-sulfamoylbenzyl)-1H-pyrazol-1-yl)thiazole-4-carboxylic acid] | 1 to 10 |  |  |  |  | < 1 | < 100 | 
COc1cc(F)cc(-c2nn(-c3nc(C(=O)O)cs3)c(CC3CC3)c2Cc2ccc(S(N)(=O)=O)c(F)c2)c1 [Example 24, 2-(5-(cyclopropylmethyl)-4-(3-fluoro-4-sulfamoylbenzyl)-3-(3-fluoro-5-methoxyphenyl)-1H-pyrazol-1-yl)thiazole-4-carboxylic acid] | 1 to 10 |  |  |  |  | 1 to 10 | < 100 | 
NS(=O)(=O)c1c(F)cc(Cc2c(-c3ccc(F)cc3)nn(-c3nc(C(=O)O)cs3)c2CC2CC2)cc1F [Example 27, 2-(5-(Cyclopropylmethyl)-4-(3,5-difluoro-4-sulfamoylbenzyl)-3-(4-fluorophenyl)-1H-pyrazol-1-yl)thiazole-4-carboxylic acid] | 1 to 10 |  |  |  |  | < 1 | 100 to 250 | 

Source: patent US20230183228A1, “SUBSTITUTED PYRAZOLYL COMPOUNDS AND METHODS OF USE THEREOF” (Chinook Therapeutics Canada, Inc., priority 2020, published 2023)
